The results in this text go back to the supplement of paper PMC4862054.

Some results are limits rather than exact numbers.

In test [1] the test system is MFM-223. To be noted: 72 h. The procedure, abridged:
(§1)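 Breast cancer cell lines in 20 µl suspension were added to 384-well plates already holding compound at 5 concentrations, spaced in 10-fold steps across a compound-specific 10,000-fold range, and incubated for 72 h. CellTox Green fluorescence (485/520 nm) was read first to measure cell death, followed by CellTiter-Glo luminescence for viability after 10 min at room temperature. Each plate was normalised to 0.1 % DMSO and a positive kill control. EC50 values came from dose-response curve fits and were censored at the top concentration.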

Test [2] concerns MDA-MB-436. To be noted: 72 h. An outline of the steps: as §1
In test [3] the test system is BT-474. To be noted: 72 h. The procedure, abridged: as §1
Test [4] concerns CAL-51. To be noted: 72 h. An outline of the steps: as §1
The subject of test [5] is HCC1937. To be noted: 72 h. The procedure, abridged:
as §1

Test [6] concerns CAL-120. To be noted: 72 h. The procedure, abridged:
as §1

The subject of test [7] is MDA-MB-231. To be noted: 72 h. An outline of the steps:
as §1

In test [8] the test system is MCF-10A. To be noted: 72 h. An outline of the steps: as §1
In test [9] the test system is HDQ-P1. To be noted: 72 h. The procedure, abridged: as §1
The test system of test [10] is HCC1143. To be noted: 72 h. An outline of the steps: as §1
For test [11], the system named is BT-549. To be noted: 72 h. An outline of the steps: as §1
Test [12] has as its system MDA-MB-453. To be noted: 72 h. The procedure, abridged: as §1
Test [13] relates to DU-4475. To be noted: 72 h. An outline of the steps:
as §1

Test [14] concerns HCC1599. To be noted: 72 h. An outline of the steps:
as §1

In test [15] the test system is CAL-85-1. To be noted: 72 h. The procedure, abridged:
as §1

The subject of test [16] is Hs578T. To be noted: 72 h. An outline of the steps:
as §1

Test [17] concerns CAL-148. To be noted: 72 h. The procedure, abridged: as §1
The test system of test [18] is SK-BR-3. To be noted: 72 h. The procedure, abridged:
as §1

The subject of test [19] is MFM-223. The experiment in a line: normalised response (% of control), CellTiter-Glo; higher = more viable cells (100 = DMSO, 0 = benzethonium chloride kill control). To be noted: incubation time: 72 h. The procedure, abridged:
(§2)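 Every value is a normalised signal taken at one concentration of a dilution series. Compound was placed in 384-well plates at 5 concentrations in 10-fold steps over a compound-specific 10,000-fold range, and 20 µl of breast cancer cell suspension was seeded onto it. After 72 h, CellTox Green fluorescence (485/520 nm) was measured first and CellTiter-Glo luminescence second, following 10 min at room temperature. Each plate was scaled to 0.1 % DMSO (100) and a positive kill control (0).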

In test [20] the test system is DU-4475. The description is as above. To be noted: incubation time: 72 h. An outline of the steps: as §2
Test [21] relates to MDA-MB-468. The test is described as above. To be noted: incubation time: 72 h. The procedure, abridged:
as §2

Test [22] deals with CAL-85-1. Described as above. To be noted: incubation time: 72 h. The procedure, abridged:
as §2

The subject of test [23] is MDA-MB-231. The description is as above. To be noted: incubation time: 72 h. An outline of the steps:
as §2

For the compound `COC(=O)c1ccc2c(c1)NC(=O)/C2=C(\Nc1ccc(N(C)C(=O)CN2CCN(C)CC2)cc1)c1ccccc1` [Nintedanib], the “EC50, CellTiter-Glo” value in test [1] worked out at 408 nM; in test [2], 5340 nM; in [3], 3550 nM; in test [4], 1880 nM; in test [5] it was 4830 nM; in test [6], 2380 nM. In addition, the “EC50, CellTiter-Glo” value worked out at 2580 nM in test [7]; 584 nM in test [8]; 1080 nM in [9]; 4780 nM in [10]; 1910 nM in test [11]; 3110 nM in [12].
`c1ccc2c(CCNc3ccc(Nc4ccncc4)cc3)c[nH]c2c1` [Serdemetan]: the “EC50, CellTiter-Glo” value is greater than 10000 nM in [1]; 8140 nM in test [2]; 2370 nM in test [13]; 5240 nM in [14]; 4650 nM in test [3]; 315 nM in test [4]. In addition, the “EC50, CellTiter-Glo” value was greater than 10000 nM in test [5]; 8460 nM in test [15]; 6230 nM in test [7]; 1230 nM in test [9]; 1730 nM in [11]; 9710 nM in test [16]. Besides, the results for the “EC50, CellTiter-Glo” value in [17], in [12] and in test [18] were 2490 nM, 8860 nM and 2780 nM, respectively.
For `Cc1cc(Nc2cc(CN3CCOCC3)c3nc(C)c(Cc4ccc(Cl)cc4F)n3n2)n[nH]1` [Gandotinib], the “EC50, CellTiter-Glo” value came to 420 nM in [1]; 1510 nM in [2]; 7860 nM in test [13]; 1110 nM in test [3]; 775 nM in test [4]; 2530 nM in [5]. For the same compound, the “EC50, CellTiter-Glo” value amounted to 955 nM in [15]; 5010 nM in test [6]; 1300 nM in test [7]; 3140 nM in test [8]; 1930 nM in test [9]; 1620 nM in test [10]. The “EC50, CellTiter-Glo” value in [11] was 2510 nM; in test [16] it was 2660 nM; in test [18], 4030 nM.
As for `CC(C)C[C@@H](C(=O)N[C@H](C(=O)OC1CCCC1)c1ccccc1)[C@H](O)C(=O)NO` [Tosedostat] (10000 nM), the normalised response in test [19] was 55.9%; in [20] it was 87.6%; in test [21] it was 24.6%; in [22] it was 36.6%; in [23] it was 35.7%.
Consider `S=P(N1CC1)(N1CC1)N1CC1` [Thio-TEPA], for which the “EC50, CellTiter-Glo” value in test [11] came to 8210 nM.
Take `Cc1ccc(NC(=O)c2ccc(CN3CCN(C)CC3)cc2)cc1Nc1nc(-c2cccnc2)cs1` [Masitinib] (10000 nM): the normalised response in test [19] turned out to be 73%; in test [20] it was 99.4%; in test [21], 36.6%; in [22], 64.4%; in test [23] it was 51.5%.
For the compound `CCc1c2c(nc3ccc(OC(=O)N4CCC(N5CCCCC5)CC4)cc13)-c1cc3c(c(=O)n1C2)COC(=O)[C@]3(O)CC` [Irinotecan] (10000 nM), the normalised response was 96.5% in test [19]; 41.8% in test [20]; 23.2% in test [21]; 63.6% in test [22]; 84.8% in test [23].
With `C=C1C[C@@H]2[C@H](CC[C@]3(C)C(=O)CC[C@@H]23)[C@@]2(C)C=CC(=O)C=C12` [Exemestane] (10000 nM), the normalised response in [19] was found to be 94.5%; in test [20], 108%; in [21], 76.3%; in [22], 97.7%; in test [23], 104%.
`N#Cc1ccc(COC[C@H]2O[C@@H](n3c(NCc4ccc(Cl)c(Cl)c4)nc4c(N)ncnc43)[C@H](O)[C@@H]2O)cc1` (10000 nM): the normalised response in test [19] is 74.3%; in [20], 65.6%; in [21], 72.5%; in test [22], 86.3%; in test [23], 74.5%.
Regarding `N#Cc1ccc(COC[C@H]2O[C@@H](n3c(NCc4ccc(Cl)c(Cl)c4)nc4c(N)ncnc43)[C@H](O)[C@@H]2O)cc1`, the “EC50, CellTiter-Glo” value was 4530 nM in test [1]; 1170 nM in test [13]; 857 nM in test [3]; greater than 10000 nM in [5]; 2640 nM in test [8]; 3550 nM in test [9]. For the same compound, the “EC50, CellTiter-Glo” value amounted to 2640 nM in test [10], 1520 nM in test [11], 1740 nM in test [16] and 2580 nM in [18].
As for `O=P1(N(CCCl)CCCl)NCCCO1` (stereo unspecified) [Cyclophosphamide] (40000 nM), the normalised response in test [19] turned out to be 108%; in test [20] it was 102%; in test [21], 93.2%; in [22] it was 98.8%; in test [23], 99.9%.
With `Nc1cc(C(F)(F)F)c(-c2cc(N3CCOCC3)nc(N3CCOCC3)n2)cn1` [Buparlisib], the “EC50, CellTiter-Glo” value in [1] amounted to 225 nM; in test [3] it was 5150 nM; in test [4], 2400 nM; in [5] it was 6150 nM; in test [6], 8230 nM; in test [7] it was 9280 nM. Also, the “EC50, CellTiter-Glo” value in [8] is 513 nM; in test [9] it was 1000 nM; in test [10] it was greater than 10000 nM; in test [11], 2360 nM; in [16] it was 2330 nM.
In the case of `COc1cc(OC2CCN(C)CC2)ccc1Nc1ncc2c(n1)n(C1CCCC1)c(=O)n2C` [AZ 3146] (10000 nM), the normalised response in [19] stood at 72.1%; in test [20], 79.1%; in [21], 28.6%; in test [22], 51.7%; in test [23], 62.3%.
On to `Oc1ccc2c(c1)CC[C@H](c1ccccc1)[C@@H]2c1ccc(OCCN2CCCC2)cc1` [Lasofoxifene] (1000 nM), for which the normalised response was 102% in test [19]; 96.2% in test [20]; 99.7% in test [21]; 100% in [22]; 102% in [23].
On to `Cc1ccc(NC(=O)c2ccc(CN3CCN(C)CC3)cc2)cc1Nc1nc(-c2cccnc2)cs1` [Masitinib], for which the “EC50, CellTiter-Glo” value in test [1] is greater than 10000 nM; in test [14], 9360 nM; in test [3], 7580 nM; in test [4], 5460 nM; in test [5], greater than 10000 nM; in test [7], greater than 10000 nM. Besides, the “EC50, CellTiter-Glo” value in [9] stood at 4910 nM; in test [11], 1880 nM; in test [12] it was 1620 nM; in test [18] it was 7390 nM.
On to `Cc1[nH]c2ccccc2c1CCNCc1ccc(/C=C/C(=O)NO)cc1` [Panobinostat] (1000 nM), for which the normalised response is 29.4% in [19]; 13.9% in [20]; 7.12% in [21]; 3.87% in [22]; 6.11% in test [23].
As to `NC(=O)c1ccc(I)c([N+](=O)[O-])c1` [Iniparib], in [2], the “EC50, CellTiter-Glo” value amounted to 540 nM.
As for `CNC(=O)c1ccc(N2C(=S)N(c3ccc(C#N)c(C(F)(F)F)c3)C(=O)C23CCC3)cc1F` [RD162], the “EC50, CellTiter-Glo” value in test [3] was greater than 10000 nM.
As for `c1ccc2c(CCNc3ccc(Nc4ccncc4)cc3)c[nH]c2c1` [Serdemetan] (10000 nM), the normalised response in [19] came to 58%; in test [20], 0.28%; in test [21] it was 9.51%; in test [22], 39.1%; in test [23], 41%.
With `CO[C@H]1C[C@@H]2CC[C@@H](C)[C@@](O)(O2)C(=O)C(=O)N2CCCC[C@H]2C(=O)O[C@H]([C@H](C)C[C@@H]2CC[C@@H](OP(C)(C)=O)[C@H](OC)C2)CC(=O)[C@H](C)/C=C(\C)[C@@H](O)[C@@H](OC)C(=O)[C@H](C)C[C@H](C)/C=C/C=C/C=C/1C` [Ridaforolimus] (100 nM), the normalised response amounted to 68.3% in test [19]; 72.8% in test [20]; 56.7% in test [21]; 66.8% in test [22]; 88.4% in test [23].
